Results published in EP0449026A2, “Desoxynojirimycin derivatives, process for their preparation and their use in drugs” (BAYER AG, priority 1990, dated 1991).
Converted amounts (≈) assume the structure as drawn.

Test system: Visna-Virus
Experiment: Visna virus test: inhibition of the virus-induced cytopathic effect in infected sheep fibroblast cultures
Type: cell-based
Conditions: Visna-maedi virus, Fibroblastenzellen vom Schaf, MOI ca. 0,05, 7 Tage bei 37°C 5% CO₂, concentration at which the cytopathic effect is inhibited by 50%, read microscopically
Source text: In Zellkulturen, die mit Visna-Virus infiziert sind, treten 5 bis 10 Tage nach der Infektion ausgeprägte virusinduzierte, zytopathische Effekte auf. Durch Behandlung der infizierten Zellkulturen mit den erfindungsgemäßen Verbindungen konnte das Auftreten dieser zytopathischen Effekte verhindert werden.
Der Visna-Virus-Test wurde nach der Methode von O. Narayan et al., Journal of Infectious Diseases 135, 5, 1977, 800 - 806 durchgeführt. Dazu wurden die erfindungsgemäßen Verbindungen im Kulturmedium in nicht zytotoxischen Konzentrationen in 96er Microtiterplatten verdünnt. Anschließend wurden Fibroblastenzellen vom Schaf (5 x 10⁴ Zellen pro Napf) in Produktionsmedium zu jedem Näpfchen zugeführt. Jedes Näpfchen erhielt dann 50 µl einer Visna-Viruslösung mit einer Titer von ca. […] TCID₅₀ (TCID = tissue culture infectious dosis). Diese Virusdosis entspricht einer MOI (Multiplizität der Infektion) von ca. 0,05.
Unter diesen Infektionsbedingungen resultierte zwischen Tag 5 und Tag 10 in einer Infektionskontrolle ohne Substanz ein virusinduzierter, zytopathischer Effekt. Die infizierten und behandelten Zellen und die Kontrollzellen wurden 7 Tage bei 37°C 5% CO₂ inkubiert.
Bei Auftreten des virusinduzierten zytopathogenen Effektes in der unbehandelten Viruskontrolle wurden die Kulturen mit Formalin fixiert und anschließend mit einer Giemsa-Lösung gefärbt. Die inhibitorische Konzentration (IC₅₀) wurde mikroskopisch als die Konzentration ermittelt, bei der der zytopathische Effekt um 50% gehemmt wurde: im Vergleich zur unbehandelten Viruskontrolle, die 100% Zellzerstörung aufwies.

Row | SMILES | IC50 [µg/mL]
1 | CC=CCN1CC(OC(=O)c2ccccc2)C(OC(=O)c2ccccc2)C(O)C1CO (stereo not drawn) [Beispiel 3, N-Butenyl-2,3-dibenzoyl-desoxynojirimycin] | 50 (≈ 118 µM)
2 | CC=CCN1CC(OC(C)=O)C(OC(C)=O)C(O)C1CO (stereo not drawn) [Beispiel 6] | 12.5 (≈ 41.5 µM)
3 | CC=CCN1CC(OC(=O)CC(C)C)C(OC(=O)CC(C)C)C(O)C1CO (stereo not drawn) [Beispiel 10] | 20 (≈ 51.9 µM)
